Measurements from ChEMBL document CHEMBL4673355, “Thiacalixarene based quaternary ammonium salts as promising antibacterial agents” (Bioorg Med Chem, 2021).
“And” between values parts separate entries of the source, which are not always exact repeats. Equal entries are not always repeated. Each block holds one compound with its values, some of them ahead of it.

Assays:
[1] = tested on: Pseudomonas aeruginosa; assay: Antibacterial activity against Pseudomonas aeruginosa ATCC 9027 assessed as reduction in bacterial growth incubated for 24 hrs by CLSI broth microdilution method; format: functional
[2] = tested on: Klebsiella pneumoniae; assay: Antibacterial activity against Klebsiella pneumoniae ATCC 10031 assessed as reduction in bacterial growth incubated for 24 hrs by CLSI broth microdilution method; format: functional
[3] = tested on: Escherichia coli; assay: Antibacterial activity against Escherichia coli ATCC 25922 assessed as reduction in bacterial growth incubated for 24 hrs by CLSI broth microdilution method; format: functional
[4] = tested on: Staphylococcus aureus; assay: Antibacterial activity against Staphylococcus aureus ATCC 6538 incubated for 24 hrs by CLSI broth microdilution method; format: functional
[5] = Selectivity index, ratio of CC50 for human HSF cells to MIC for Staphylococcus epidermidis; format: toxicity; conditions: for selectivity ratio: HSF cells
[6] = Selectivity index, ratio of CC50 for human HSF cells to MIC for Staphylococcus aureus ATCC 29213; format: toxicity
[7] = tested on: Pseudomonas aeruginosa; assay: Antibacterial activity against Pseudomonas aeruginosa ATCC 27853 assessed as reduction in bacterial growth incubated for 24 hrs by CLSI broth microdilution method; format: functional; conditions: Pseudomonas aeruginosa, ATCC 27853, 24 h, read-out: MIC
[8] = tested on: Staphylococcus epidermidis; assay: Bactericidal activity against Staphylococcus epidermidis assessed as reduction in bacterial growth incubated for 24 hrs followed by replating on MH broth and further incubated for 24 hrs by CLSI broth microdilution method; format: functional; conditions: Staphylococcus epidermidis, read-out: MBC
[9] = tested on: Bacillus subtilis; assay: Bactericidal activity against Bacillus subtilis 168 assessed as reduction in bacterial growth incubated for 24 hrs followed by replating on MH broth and further incubated for 24 hrs by CLSI broth microdilution method; format: functional; conditions: Bacillus subtilis, 168, 24 h
[10] = Selectivity index, ratio of CC50 for human HSF cells to MIC for Bacillus subtilis 168; format: toxicity
[11] = tested on: Staphylococcus aureus; assay: Bactericidal activity against Staphylococcus aureus ATCC 29213 assessed as reduction in bacterial growth incubated for 24 hrs followed by replating on MH broth and further incubated for 24 hrs by CLSI broth microdilution method; format: functional; conditions: Staphylococcus aureus, ATCC 29213; time 48 hrs; read-out: MBC
[12] = tested on: Klebsiella pneumoniae; assay: Bactericidal activity against Klebsiella pneumoniae ATCC 1813 assessed as reduction in bacterial growth incubated for 24 hrs followed by replating on MH broth and further incubated for 24 hrs by CLSI broth microdilution method; format: functional
[13] = tested on: Acinetobacter; assay: Antibacterial activity against […] resistant Acinetobacter spp. clinical isolate 5 assessed as reduction in bacterial growth incubated for 24 hrs by CLSI broth microdilution method; format: functional
[14] = Antibacterial activity against […] resistant Moraxella sp.829 clinical isolate assessed as reduction in bacterial growth incubated for 24 hrs by CLSI broth microdilution method; format: functional; conditions: Moraxella catarrhalis
[15] = tested on: Pseudomonas aeruginosa; assay: Bactericidal activity against Pseudomonas aeruginosa ATCC 27853 assessed as reduction in bacterial growth incubated for 24 hrs followed by replating on MH broth and further incubated for 24 hrs by CLSI broth microdilution method; format: functional
[16] = Antibacterial activity against […] resistant Moraxella sp.765 clinical isolate assessed as reduction in bacterial growth incubated for 24 hrs by CLSI broth microdilution method; format: functional; conditions: Moraxella catarrhalis
[17] = tested on: Staphylococcus aureus; assay: Antibacterial activity against methicillin- resistant Staphylococcus aureus 25 clinical isolate assessed as reduction in bacterial growth incubated for 24 hrs by CLSI broth microdilution method; format: functional
[18] = tested on: Staphylococcus intermedius; assay: Antibacterial activity against methicillin- resistant Staphylococcus intermedius 1143 clinical isolate assessed as reduction in bacterial growth incubated for 24 hrs by CLSI broth microdilution method; format: functional
[19] = tested on: Staphylococcus haemolyticus; assay: Antibacterial activity against methicillin- resistant Staphylococcus haemolyticus 837 assessed as reduction in bacterial growth incubated for 24 hrs by CLSI broth microdilution method; format: functional
[20] = tested on: Pseudomonas; assay: Antibacterial activity against methicillin- resistant Pseudomonas spp. clinical isolate 6 assessed as reduction in bacterial growth incubated for 24 hrs by CLSI broth microdilution method; format: functional
[21] = tested on: Proteus sp.; assay: Antibacterial activity against […] resistant Proteus sp. clinical isolate 17 assessed as reduction in bacterial growth incubated for 24 hrs by CLSI broth microdilution method; format: functional; conditions: Proteus sp. (in: enterobacteria)
[22] = tested on: Klebsiella sp.; assay: Antibacterial activity against […] resistant Klebsiella sp. clinical isolate 11 assessed as reduction in bacterial growth incubated for 24 hrs by CLSI broth microdilution method; format: functional
[23] = tested on: Bacillus subtilis; assay: Antibacterial activity against Bacillus subtilis 168 assessed as reduction in bacterial growth incubated for 24 hrs by CLSI broth microdilution method; format: functional
[24] = tested on: Acinetobacter; assay: Antibacterial activity against […] resistant Acinetobacter spp. clinical isolate 3 assessed as reduction in bacterial growth incubated for 24 hrs by CLSI broth microdilution method; format: functional
[25] = tested on: Klebsiella sp.; assay: Antibacterial activity against […] resistant Klebsiella sp. clinical isolate 12 assessed as reduction in bacterial growth incubated for 24 hrs by CLSI broth microdilution method; format: functional
[26] = tested on: Acinetobacter; assay: Antibacterial activity against […] resistant Acinetobacter spp. clinical isolate 1 assessed as reduction in bacterial growth incubated for 24 hrs by CLSI broth microdilution method; format: functional
[27] = tested on: Staphylococcus aureus; assay: Antibacterial activity against methicillin- resistant Staphylococcus aureus 2020 clinical isolate assessed as reduction in bacterial growth incubated for 24 hrs by CLSI broth microdilution method; format: functional
[28] = Antibacterial activity against […] resistant Moraxella sp.764 clinical isolate assessed as reduction in bacterial growth incubated for 24 hrs by CLSI broth microdilution method; format: functional; conditions: Moraxella catarrhalis
[29] = tested on: Staphylococcus aureus; assay: Antibacterial activity against methicillin- resistant Staphylococcus aureus 967 clinical isolate assessed as reduction in bacterial growth incubated for 24 hrs by CLSI broth microdilution method; format: functional
[30] = tested on: Escherichia coli; assay: Bactericidal activity against Escherichia coli ATCC 25922 assessed as reduction in bacterial growth incubated for 24 hrs followed by replating on MH broth and further incubated for 24 hrs by CLSI broth microdilution method; format: functional
[31] = tested on: Staphylococcus aureus; assay: Antibacterial activity against methicillin- resistant Staphylococcus aureus 983 clinical isolate assessed as reduction in bacterial growth incubated for 24 hrs by CLSI broth microdilution method; format: functional
[32] = tested on: Staphylococcus aureus; assay: Antibacterial activity against Staphylococcus aureus ATCC 29213 by CLSI broth microdilution method; format: functional
[33] = tested on: Escherichia coli; assay: Bactericidal activity against Escherichia coli ATCC 25922; format: functional
[34] = tested on: Staphylococcus aureus; assay: Bactericidal activity against Staphylococcus aureus ATCC 29213; format: functional
[35] = Escherichia coli, ATCC 25922, 24 h, read-out: MIC

Structure (SMILES): CCCCCCCCOc1c2cc(C[N+](C)(C)CCN)cc1Cc1cc(C[N+](C)(C)CCN)cc(c1OCCCCCCCC)Cc1cc(C[N+](C)(C)CCN)cc(c1OCCCCCCCC)Cc1cc(C[N+](C)(C)CCN)cc(c1OCCCCCCCC)C2.[Cl-].[Cl-].[Cl-].[Cl-]
- MIC [1]: > 1000 µg/mL
- MIC [2]: > 1000 µg/mL
- MIC [3, 35]: > 1000 µg/mL
- MIC [4]: > 1000 µg/mL

Structure (SMILES): CCCC[N+](C)(C)CCCNC(=O)COc1c2cc(C(C)(C)C)cc1Sc1cc(C(C)(C)C)cc(c1OCC(=O)NCCC[N+](C)(C)CCCC)Sc1cc(C(C)(C)C)cc(c1OCC(=O)NCCC[N+](C)(C)CCCC)Sc1cc(C(C)(C)C)cc(c1OCC(=O)NCCC[N+](C)(C)CCCC)S2.[Cl-].[Cl-].[Cl-].[Cl-]
- Ratio [5]: 19
- selectivity ratio [5]: 11
- Ratio [6]: 19
- selectivity ratio ([6]; HSF cells): 11
- MIC [7]: > 64 µg/mL
- MBC [8]: 8 µg/mL
- MIC ([3]; 24 h): 64 µg/mL
- MIC [3, 35]: > 64 µg/mL
- MBC [9]: 16 µg/mL
- Ratio [10]: 23 and 9
- MBC [11]: 16 µg/mL

Structure (SMILES): CC(C)(C)c1cc2c(OCC(=O)NCCC[N+](C)(C)C)c(c1)Sc1cc(C(C)(C)C)cc(c1OCC(=O)NCCC[N+](C)(C)C)Sc1cc(C(C)(C)C)cc(c1OCC(=O)NCCC[N+](C)(C)C)Sc1cc(C(C)(C)C)cc(c1OCC(=O)NCCC[N+](C)(C)C)S2.[Cl-].[Cl-].[Cl-].[Cl-]
- Ratio [5]: 11
- selectivity ratio [5]: > 16
- MIC [7]: > 64 µg/mL
- MBC [8]: 32 µg/mL
- MIC [3, 35]: > 64 µg/mL
- MBC [9]: 8 µg/mL
- Ratio [10]: > 16 and 43
- MBC [11]: > 64 µg/mL

Structure (SMILES): CCCCCCCC[N+](C)(C)CCCNC(=O)COc1c2cc(C(C)(C)C)cc1Sc1cc(C(C)(C)C)cc(c1OCC(=O)NCCC[N+](C)(C)CCCCCCCC)Sc1cc(C(C)(C)C)cc(c1OCC(=O)NCCC[N+](C)(C)CCCCCCCC)Sc1cc(C(C)(C)C)cc(c1OCC(=O)NCCC[N+](C)(C)CCCCCCCC)S2.[Cl-].[Cl-].[Cl-].[Cl-]
- MBC [12]: 32 µg/mL
- MIC [13]: 16 µg/mL
- MIC [14]: 16 µg/mL
- MBC [15]: 32 µg/mL
- MIC [16]: 16 µg/mL
- MIC [17]: 4 µg/mL
- MIC [18]: 2 µg/mL
- MIC [19]: 16 µg/mL
- MIC [20]: 16 µg/mL
- MIC [21]: 64 µg/mL
- MBC [8]: 2 µg/mL
- MIC [22]: 16 µg/mL
- MIC ([23]; 24 h): 4 µg/mL
- MIC ([23]; Bacillus subtilis, 168, 24 h, read-out: MIC): 2 µg/mL
- MBC [9]: 16 µg/mL
- MIC [24]: 16 µg/mL
- MIC [25]: 16 µg/mL
- MIC [26]: 8 µg/mL
- MIC [27]: 16 µg/mL
- MIC [28]: 16 µg/mL
- MIC [29]: 16 µg/mL
- MBC [30]: 16 µg/mL
- MIC [31]: 16 µg/mL
- MBC [11]: 1 µg/mL

More lines, main results first:

- MIC [1]: 50 µg/mL
- MIC [2]: ≤ 10 µg/mL
- MIC [3, 35]: ≤ 10 µg/mL
- MIC [4]: ≤ 10 µg/mL
Structure (SMILES): CCCOc1c2cc(C[n+]3ccn(C)c3)cc1Cc1cc(C[n+]3ccn(C)c3)cc(c1OCCC)Cc1cc(C[n+]3ccn(C)c3)cc(c1OCCC)Cc1cc(C[n+]3ccn(C)c3)cc(c1OCCC)C2.[Cl-].[Cl-].[Cl-].[Cl-]

- MIC [32]: 16 µg/mL
- MIC [1]: 500 µg/mL
- MIC [2]: > 1000 µg/mL
- MIC [3, 35]: 32 µg/mL
- MIC [4]: > 1000 µg/mL
Structure (SMILES): CCCCCCCCOc1c2cc(C[N+](C)(C)CCO)cc1Cc1cc(C[N+](C)(C)CCO)cc(c1OCCCCCCCC)Cc1cc(C[N+](C)(C)CCO)cc(c1OCCCCCCCC)Cc1cc(C[N+](C)(C)CCO)cc(c1OCCCCCCCC)C2.[Cl-].[Cl-].[Cl-].[Cl-]
- MBC [33]: 256 µg/mL
- MBC [34]: 16 µg/mL
